Results as given in US10130601B2, “Use of a composition comprising fish oil and juice for the treatment of inflammation” (Smartfish AS, priority 2013, dated 2018).

Assays:
[1] = ALSFRS-R score (self-reported) in ALS patients; assay type: in vivo, human
Description: Patients in the study self-reported the ALSFRS-R score. The Amyotrophic Lateral Sclerosis Functional Rating Scale (ALSFRS-R) is a score from 0-48 which assesses disability in patients with MND. It was developed by Cedarbaum and colleagues (Cedarbaum J M. The ALSFRS-R: a revised ALS functional rating scale that incorporates assessments of respiratory function. BDNF ALS Study Group (Phase III). J Neurol Sci 1999; 169: 13-21). There are twelve questions, some asking about daily activities and how much help a patient needs with them, and some about specific symptoms.
1 for 8 months, no. 2 for 2 months, no. 6 for 4 months, no 7 for 5 months, and no. 11 for 4 months (Table 1). […] 1: 2.6 loss to 0.4 loss, no. 6: from 0.7 loss to 1 point gain, no. 11: from 3.5 loss to 0.5 loss. Said three patients were the patients receiving the composition of the present invention.

[2] = system: inflammatory genes in peripheral blood mononuclear cells; assay: Inflammatory gene transcription in peripheral blood mononuclear cells of ALS patients; assay type: in vivo, human; conditions: PBMCs
Description: The aim of this study was to investigate in vivo baseline inflammatory gene transcription in peripheral blood mononuclear cells and the effects of tozilizumab (Actemra®) in 11 ALS patients and also measure the disability before and after the therapy comparing the FRS-R score (Functional Rating Scale). Fiala et al., (to be published). The patients were free to take nutritional supplements. Three patients were taking the composition used in the present invention, transcription results are presented in Example 1 together with the results from the ALSFRS-R score (The Amyotrophic Lateral Sclerosis Functional Rating Scale).
In vivo baseline inflammatory gene transcription in peripheral blood mononuclear cells of 11 ALS patients and the effects of tocilizumab (Actemra®) (cytokine antagonist) infusions were studied tocilizumab inhibits global interleukin-6 (IL6) signaling, a key mechanism in chronic rheumatoid disorder.
At base line one half of the ALS subjects had strong inflammatory activation (Group 1) (8 genes up regulated >4-fold, P<0.05 vs. controls) and the other half (Group 2) had weak activation (Group 2).

Substance: tocilizumab [Actemra]
- FRS-R change After Actemra ([1]; patient #1, spinal ALS, Group 1, before −2.6, treated 8 months, also took the composition): −0.4 points/mo
- FRS-R change After Actemra ([1]; patient #2, spinal ALS, Group 1, before −1.3, treated 2 months): −0.75 points/mo
- FRS-R change After Actemra ([1]; patient #6, spinal ALS, Group 2, before −0.7, treated 4 months, also took the composition): +1.0 points/mo
- FRS-R change After Actemra ([1]; patient #7, spinal ALS, Group 2, before −0.37, treated 5 months): −2.0 points/mo
- FRS-R change After Actemra ([1]; patient #11, spinal ALS, Group unknown, before −3.5, treated 4 months, also took the composition): −0.5 points/mo
- regulation of inflammatory genes after infusions ([2]; ALS patients of Group 1 (strong inflammation)): down regulation
- regulation of inflammatory genes after infusions ([2]; ALS patients of Group 2 (weak inflammation)): up regulation
